These molecules were tested against human recombinant H-PGDS (Homo sapiens, UniProt O60760) (assay: Fluorescence Intensity h-PGDS TBA Enzyme Assay). Conditions: 1:175,000 human recombinant H-PGDS, highest inhibitor concentration typically 1 μM.
Type: biochemical
In short: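 Readout is PGH2 depletion: after a 42 s reaction with 5.0 μM PGH2 and 2.5 mM glutathione (pH 8.0 Tris, 10 min inhibitor preincubation), Fe(II) converts leftover PGH2 to MDA, which forms a fluorescent TBA complex. IC50s come from 11-point, 3-fold duplicate curves, 4-parameter fit.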

Chain of human recombinant H-PGDS (O60760 whole entry): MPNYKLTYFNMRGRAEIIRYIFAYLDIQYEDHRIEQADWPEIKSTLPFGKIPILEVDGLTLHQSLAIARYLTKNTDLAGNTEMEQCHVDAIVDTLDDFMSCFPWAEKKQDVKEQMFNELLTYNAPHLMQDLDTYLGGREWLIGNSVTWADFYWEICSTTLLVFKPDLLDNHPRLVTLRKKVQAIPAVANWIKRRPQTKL

Row | Molecule | IC50 [nM]
1 | Cc1cc(CNC(=O)c2ccc(-c3cccc(F)c3)nc2)c(C(F)(F)F)o1 [Example 203, 6-(3-Fluorophenyl)-N-{[5-methyl-2-(trifluoromethyl)-3-furyl]methyl}nicotinamide] | 150
2 | O=C(NCCC1CNCCO1)c1ccc(-c2ccc(F)cc2)nc1 (stereo not shown) [Example 458, 6-(4-Fluorophenyl)-N-(2-morpholin-2-ylethyl)nicotinamide] | 697
3 | COC(=O)c1ccc(CNC(=O)c2ccc(-c3cccc(OC)c3)nc2)cc1 [Example 344, Methyl 4-[({[6-(3-methoxyphenyl)pyridin-3-yl]carbonyl}amino)methyl] benzoate] | 159
4 | CCOCCCNC(=O)c1ccc(-c2cccc(F)c2)nc1 [Example 38, N-(3-Ethoxypropyl)-6-(3-fluorophenyl)nicotinamide] | 14.8
5 | O=C(NCCN1CCCCC1)c1ccc(-c2ccccc2)nc1 [Example 361, 6-Phenyl-N-(2-piperidin-1-ylethyl)nicotinamide] | 11.8
6 | COC(=O)[C@H](C)NC(=O)c1ccc(-c2ccccc2)nc1 [Example 349, Methyl N-[(6-phenylpyridin-3-yl)carbonyl]alaninate] | 47
7 | CCOC(=O)CC(NC(=O)c1ccc(-c2ccccc2)nc1)c1ccc(OC)cc1 (stereo not shown) [Example 362, Ethyl 3-(4-methoxyphenyl)-3-{[(6-phenylpyridin-3-yl)carbonyl]amino}propanoate] | 12
8 | O=C(NC1CCN(Cc2ccc(Cl)c(Cl)c2)C1=O)c1ccc(-c2ccc(F)cc2)nc1 (stereo not shown) [Example 479, N-[1-(3,4-Dichlorobenzyl)-2-oxopyrrolidin-3-yl]-6-(4-fluorophenyl)nicotinamide] | 896
9 | Cc1cc(C)cc(-c2nnc(CCNC(=O)c3ccc(-c4cccc(F)c4)nc3)o2)c1 [Example 213, N-{2-[5-(3,5-Dimethylphenyl)-1,3,4-oxadiazol-2-yl]ethyl}-6-(3-fluorophenyl)nicotinamide] | 28.3
10 | O=C(NCCC1CCCCO1)c1ccc(-c2cccc(F)c2)nc1 (stereo not shown) [Example 172, 6-(3-Ffluorophenyl)-N-[2-(tetrahydro-2H-pyran-2-yl)ethyl]nicotinamide] | 5.74
11 | O=C(NCCCn1nnc2ccccc21)c1ccc(-c2cccc(F)c2)nc1 [Example 5, N-[3-(1H-Benzotriazol-1-yl)propyl]-6-(3-fluorophenyl)nicotinamide] | 4.86
12 | O=C(NCCC1CCCCO1)c1cnc(-c2cccc(F)c2)c(Cl)c1 (stereo not shown) [Example 553, 5-Chloro-6-(3-fluorophenyl)-N-[2-(tetrahydro-2H-pyran-2-yl)ethyl]nicotinamide] | 31.8
13 | COC(=O)c1ccc(CNC(=O)c2ccc(-c3cccc(F)c3)nc2)cc1 [Example 416, Methyl 4-[({[6-(3-fluorophenyl)pyridin-3-yl]carbonyl}amino)methyl] benzoate] | 44.8
14 | O=C(NCCc1ccncc1)c1ccc(-c2cccc(F)c2)nc1 [Example 185, 6-(3-Fluorophenyl)-N-(2-pyridin-4-ylethyl)nicotinamide] | 8.99
15 | Cc1ccc(CNC(=O)c2ccc(-c3ccccc3)nc2)cc1 [Example 365, N-(4-Methylbenzyl)-6-phenylnicotinamide] | 4.2
16 | O=C(NCC1COc2ccccc2C1)c1ccc(-c2cccc(F)c2)nc1 (stereo not shown) [Example 528, N-(3,4-Dihydro-2H-chromen-3-ylmethyl)-6-(3-fluorophenyl)nicotinamide] | 6.45
17 | CS(=O)(=O)Cc1noc(CNC(=O)c2ccc(-c3cccc(F)c3)nc2)n1 [Example 167, 6-(3-Fluorophenyl)-N-({3-[(methylsulfonyl)methyl]-1,2,4-oxadiazol-5-yl}methyl)nicotinamide] | 285

Row | Molecule | IC50 [nM]
18 | Cc1cccc(-c2ccc(C(=O)NCCC3CCN(C)CC3)cn2)c1 [Example 253, 6-(3-Methylphenyl)-N-[2-(1-methylpiperidin-4-yl)ethyl]nicotinamide] | 100
19 | O=C(NCC1CCCN(c2ncc3c(n2)CCOC3)C1)c1ccc(-c2cccc(F)c2)nc1 (stereo not shown) [Example 84, N-{[1-(7,8-Dihydro-5H-pyrano[4,3-d]pyrimidin-2-yl)piperidin-3-yl]methyl}-6-(3-fluorophenyl)nicotinamide] | 13.8
20 | CC(C)c1noc(CNC(=O)c2ccc(-c3cccc(F)c3)nc2)n1 [Example 83, 6-(3-Fluorophenyl)-N-[(3-isopropyl-1,2,4-oxadiazol-5-yl)methyl]nicotinamide] | 72.8
21 | CCOC(=O)C(CNC(=O)c1ccc(-c2ccccc2)nc1)c1c(F)cccc1F (stereo not shown) [Example 355, Ethyl 2-(2,6-difluorophenyl)-3-{[(6-phenylpyridin-3-yl)carbonyl]amino}propanoate] | 138
22 | CCOC(=O)CC(NC(=O)c1ccc(-c2cccc(OC)c2)nc1)c1ccc(Cl)cc1 (stereo not shown) [Example 334, Ethyl 3-(4-chlorophenyl)-3-({[6-(3-methoxyphenyl)pyridin-3-yl]cabonyl}amino)propanoate] | ≥ 1000
23 | Cc1cccc(-c2ccc(C(=O)NCCN3CCCCC3)cn2)c1 [Example 225, 6-(3-Methylphenyl)-N-(2-piperidin-1-ylethyl)nicotinamide] | 265
24 | 6-(3-Fluorophenyl)-N-(3- hydroxypropyl)nicotinamide [Example 435] | 49.5
25 | CSc1ccc(CNC(=O)c2ccc(-c3ccc(F)cc3)nc2)cc1 [Example 470, 6-(4-Fluorophenyl)-N-[4-(methylthio)benzyl]nicotinamide] | ≥ 1000
26 | CCN1CCC[C@@H]1CNC(=O)c1ccc(-c2cccc(F)c2)nc1 [Example 74, N-{[(2R)-1-Ethylpyrrolidin-2-yl]methyl}-6-(3-fluorophenyl) nicotinamide] | 42.3
27 | CN(C)C(=O)N1[C@@H]2CC[C@H]1C[C@H](NC(=O)c1ccc(-c3cccc(F)c3)nc1)C2 [Example 595, (3-exo)-3-({[6-(3-Fluorophenyl)-pyridin-3-yl]carbonyl}amino)-N,N-dimethyl-8-azabicyclo[3.2.1]octane-8-carboxamide] | 3
28 | CCC1CCN(CCNC(=O)c2ccc(-c3cccc(C)c3)nc2)CC1 [Example 235, N-[2-(4-Ethylpiperidin-1-yl)ethyl]-6-(3-methylphenyl)nicotinamide] | 38.8
29 | CC(O)CNC(=O)c1ccc(-c2ccc(F)cc2)nc1 (stereo not shown) [Example 262, 6-(4-Fluorophenyl)-N-(2-hydroxypropyl)nicotinamide] | 992
30 | COc1cccc([C@H](C)NC(=O)c2ccc(-c3cccc(F)c3)nc2)c1 [Example 436, 6-(3-Fluorophenyl)-N-[(1S)-1-(3-methoxyphenyl)ethyl] nicotinamide] | 6.12
31 | Cc1cccc(-c2ccc(C(=O)NCc3ccc(F)cc3)cn2)c1 [Example 314, N-(4-Fluorobenzyl)-6-(3-methylphenyl)nicotinamide] | 79.5
32 | CN(C)[C@@H]1COC[C@H]1NC(=O)c1ccc(-c2cccc(F)c2)nc1 [Example 68, N-[(3S,4S)-4-(Dimethylamino)tetrahydro-furan-3-yl]-6-(3-fluorophenyl)nicotinamide] | 75.8
33 | COc1cccc(-c2ccc(C(=O)NCc3ccc(SC)cc3)cn2)c1 [Example 280, 6-(3-Methoxyphenyl)-N-[4-(methylthio)benzyl]nicotinamide] | 62.4
34 | COc1cc(F)cc(-c2ccc(C(=O)NCCCN3CCCC3=O)cn2)c1 [Example 543, 6-(3-Fluoro-5-methoxyphenyl)-N-[3-(2-oxopyrrolidin-1-yl)propyl]nicotinamide] | 104

Source: patent publication US20110306597A1, “Nicotinamide Derivatives” (priority 2008, published 2011)
